Patent publication US9968579B2, “ATRA for modulating Pin1 activity and stability” (Beth Israel Deaconess Medical Center, Inc., priority 2014, dated 2018)
Values belong to the molecule of their own block, whether it stands above or below them.

Tests used:
[1] = test system: Pin1 acetylation; assay: Pin1 acetylation in cells (Flag IP, acetyl-lysine immunoblot); assay type: cell-based
Description: FIG. 1 depicts HTS results for glucose starvation induced Pin1 deacetylation in cells 100. In order to perform glucose starvation induced Pin1 deacetylation in cells, cells were transfected with Flag-Pin1 and subjected to various stresses, followed by Flag IP before with immunoblotting acetyl-lysine (AcK) or Flag antibody. Glu-, glucose starvation; HS, heat shock; UV, UV radiation. […] Overexpression of p300-HA increased Pin1 acetylation in cells. Various histone acetyl transferases were co-transfected with Flag-Pin1 into cells, followed by assaying acetylated Pin1. p300 inhibitors, Garcinol (Gar) and Anacardic acid (AnAc), reversed p300-increased Pin1 acetylation.
To corroborate this notion, 2-deoxyglucose (2-DG), a glucose analog, was used to mimic glucose starvation (Wick et al., 1955). […] Protein acetylation may be catalytically modulated by a particular pair of histone acetyl transferase (HAT) and deacetylase (HDAC) (Yang and Seto, 2007). To identify the HAT and HDAC that modulates Pin1 acetylation, Flag-tagged Pin1 was expressed with several HATs including p300, CBP or GCN5 in cells, followed by coimmunoprecipitation (Co-IP) with anti-Flag antibody and immunoblotting with anti-acetyl lysine antibody.

[2] = test system: PML-RARα and Pin1 in NB4 cells; assay: PML-RARα and Pin1 protein levels in NB4 cells; assay type: cell-based, human
[3] = test system: APL cells isolated from hCG-PML-RARα transgenic mice
[4] = test system: breast cancer cells; assay: Effect of pan-RARs inhibitor/activator on ATRA-induced Pin1 degradation and growth inhibition; assay type: cell-based, human
Description: To examine whether the inhibitory effects of ATRA on breast cancer cell growth were related to RAR activation, Ro-415253 and AC-93253 were used. […] Thus, ATRA-mediated growth inhibition is likely via Pin1 degradation in breast cancer cells, as in APL cells.

[5] = test system: NB4 cells; assay: Cell growth of NB4 cells; assay type: cell-based, human; details: combination with 1.5 μM ATRA; superior to high dose ATRA
Description: (K) Potentiated effects of ATRA with SIRT1 inhibitors, NAM or Splito, on cell growth of NB4.
Next, in a consideration to test the role of activated Pin1 monomer in APL, the anti-proliferative effect of ATRA in the presence of the SIRT1 inhibitors, NAM or Splito, to deplete the monomeric Pin1 reservoir was examined.

[6] = test system: AU565 cells; assay: ATRA sensitivity of AU565 cells in combination with SIRT1 inhibitors; assay type: cell-based, human; details: ATRA-resistant AU565 cells
Description: Moreover, SIRT1 KD cells were more sensitive to growth inhibition, and Pin1 degradation induced by ATRA. These findings support the notion that ATRA selectively targets the activated Pin1 monomer.

[7] = target: T1, Pin1 PPIase domain (Homo sapiens, UniProt Q13526); assay: FP-HTS / FP assay, competition with pTide probe for Pin1 binding; details: for Pin1 binding among retinoids tested: FIG. 4F; for interaction with Pin1 in FP assay: 0.5 h or 24 h incubation with Pin1
T1 construct: Pin1 PPIase domain was used instead of its full-length protein
Description: A FP-HTS screening for small molecule compounds that may compete with pTide for binding to dephosphorylated and thus activated Pin1 was developed. Pin1 PPIase domain was used instead of its full-length protein to ensure the identification of compounds that selectively target the catalytic site of monomeric Pin1. The HTS probe pTide was conjugated with FITC or TAMRA and assay conditions optimized to ensure that the probe only binds to the catalytic active site with certain essential residues, such as K63 and R69 (PDB: 2Q5A).
(§1) As observed in FIGS. 4B and 4C, 13cRA and its pairing compound ATRA include a carboxylic acid and a hydrophobic six-membered aromatic ring.
To examine whether the carboxylic acid in ATRA serves as an alternative of phosphate group that binds to Pin1, several structurally similar retinoids with substituted carboxylic or aromatic groups, as well as the new generation of retinoid drugs including Fenretinide and Bexarotene were tested for Pin1 binding.

[8] = test system: MDA-MB-231 cells; assay: MDA-MB-231 xenograft in nude mice; assay type: in vivo, female nude mice; details: intraperitoneally 3 times a week for 8 weeks
Protocol: (A, B) ATRA inhibited tumor growth of MDA-MB-231 cells in mice. Female nude mice were flank-inoculated with 2×10^6 MDA-MB-231 cells and, 1 week later, implanted with 5 or 10 mg 21 day slow-releasing ATRA pellets. Tumor sizes were measured weekly and tumor tissues were collected from the mice after 7 weeks (A). Curves of tumor volume were plotted after calculation with formula of L×W^2×0.52 (B) (n=3).
FIG. 7 illustrates study results 700 in which the slow-releasing ATRA inhibits human triple negative breast cancer tumor growth in mice. In the pilot experiments, female nude mice were subcutaneously injected with MDA-MB-231 cells into the flank, followed by administering ATRA or vehicle intraperitoneally 3 times a week for 8 weeks. […] This ATRA's modest anti-tumor activity could be due to its short half-life of less than 1 h in humans. Thus, slow-releasing ATRA pills to maintain its constant drug level in mice was used. Mice were again subcutaneously injected with MDA-MB-231 cells into the flank and implanted 1 week later with slow-releasing ATRA or placebo pills for 8 weeks. […] Tumor samples were then collected at the end and immunoblotted with antibodies against Pin1 and its target cyclin D1.

[9] = test system: MDA-MB-231 cells expressing Q33K or E100D Pin1 mutant; assay: Xenograft of MDA-MB-231 cells expressing Q33K or E100D Pin1 mutant; parameters: species or system nude mice; details: mouse, in vivo
Protocol: (H-J) ATRA inhibited tumor growth of MDA-MB-231 cells in mice, even after over-expression of monomeric Q33K or E100D Pin1 mutant. Nude mice were injected with 2×10^6 MDA-MB-231 cells and treated with ATRA pellets at indicated dosages. Tumors were harvested 7 weeks later. Quantitative curve of tumor volumes developed by Q33K (I) or E100D (J)-expressing MDA-MB-231 in the nude mice (n=3).
It was examined whether ATRA is suitable for treating tumors driven by cancer-derived monomeric Pin1 mutants given that it induces degradation of monomeric Pin1. It is stably expressed WT, Q33K or E100D Flag-Pin1 in MDA-MB-231 cells, and then treated them with ATRA. […] Collectively, ATRA has potent anti-tumor activity against breast cancer driven by WT Pin1 or its cancer-derived monomeric mutants via ablating Pin1.

[10] = test system: cyclin D1 promoter; assay: Cyclin D1 promoter activation by Pin1; assay type: cell-based; details: dose-dependent
Description: FIG. 6 illustrates study results 600 in which ATRA may have anticancer activity in other cancer types. Breast cancer was used as model due to the substantial oncogenic role of Pin1 in vitro and in vivo. The first step was to test whether ATRA may reverse the oncogenic phenotypes induced by Pin1 overexpression, including induction of centrosome amplification, activation of the cyclin D1 promoter, and enhancement of foci formation.

[11] = test system: Pin1 and substrate oncogenes and tumor suppressors; assay: Protein levels of Pin1 and its substrates in breast cell lines; assay type: cell-based, human
Description: (I, J) Either ATRA (I) or inducible Pin1 KD (J) shared the same ability to reduce protein levels of Pin1 and its substrate oncogenes including cyclin D1, HER2, ERα, Akt, NFkB/p65, c-Jun and PKM2 as well as to increase protein levels of Pin1 substrate tumor suppressors, Smad and SMRT, in breast cancer MDA-MB-231, SKBR3 and T47D cells, with ATRA having little effects on normal MCF10A cells. TNBC, triple negative breast cancer.
To further support that ATRA targets Pin1 in breast cancer, it was examined whether ATRA would affect protein levels of a selected set of oncogenes and tumor suppressors, whose protein stability is shown to be regulated by Pin1 in breast cancer. […] To further support that these effects of ATRA are due to Pin1 degradation, it was stably introduced tetracycline-inducible Pin1 KD into these cells. Inducible Pin1 KO produced the same effects on the oncogenes and tumor suppressors, as did ATRA (FIG. 6J). Taken together, ATRA selectively ablated activated Pin1 to inhibit many cancer-driving pathways simultaneously.

[12] = target: Pin1 S71E mutant (Homo sapiens, UniProt Q13526, S71E); assay: Binding to phosphorylation-mimicking Pin1 S71E mutant
Description: as §1
The levels of S71 phosphorylation in different cell lines were tightly correlated with ATRA's sensitivity. […] It has been previously shown that phosphorylation on S71 forms salt bridges with K63 and R69, which are the same two residues that coordinated for the binding to the carboxylic acid group of ATRA (FIG. 6H). Thus S71 phosphorylation by DAPK1 may regulate ATRA's sensitivity of cancer cells.

[13] = test system: cells; details: cited from earlier work
[14] = target: T2, Pin1 (Homo sapiens, UniProt Q13526); details: read-out: Kd (affinity for Pin1); cited from earlier work
[15] = target: T2, Pin1; assay: In vitro PPIase assay; details: dose-dependent

Molecule: O=CC[C@@H](O)[C@H](O)[C@H](O)CO [2-DG, 2-deoxyglucose]
Pin1 acetylation ([1]; mimic of glucose starvation): reduction in Pin1 acetylation in a time- or dose-dependent manner

Molecule: CCOC(=O)CN1C(=O)c2ccc3c4c(ccc(c24)C1=O)C(=O)N(CC(=O)OCC)C3=O [PiB]
PML-RARα degradation [2]: induced PML-RARα degradation in a dose-dependent manner
Pin1 degradation [2]: inhibited Pin1 without degrading it

Molecule: O=C(O[C@@H]1Cc2c(O)cc(O)cc2O[C@@H]1c1cc(O)c(O)c(O)c1)c1cc(O)c(O)c(O)c1 [EGCG]
PML-RARα in the bone marrow ([3]; after 20 days): dramatically reduced
condition of treated mice ([3]; mouse, in vivo): rather sick
potency in reducing PML-RARα and spleen size compared with ATRA ([3]; mouse, in vivo): less potent
spleen weights ([3]; versus enlarged spleens in placebo group): remained nearly at basal levels
PML-RARα degradation [2]: induced PML-RARα degradation in a dose-dependent manner
Pin1 degradation [2]: inhibited Pin1 without degrading it

Molecule: CCCCCCCOc1cc2c(cc1/C(C)=C/c1ccc(C(=O)O)cc1)C(C)(C)CCS2(=O)=O [Ro-415253]
effect on Pin1 degradation or cell growth inhibition induced by ATRA [4]: neither the pan-RARs inhibitor nor the pan-RARs activator had any obvious effects

Molecule: NC(=O)c1cccnc1 [NAM]
effect on anticancer effects of low dose ATRA [5]: greatly potentiated
increase of ATRA sensitivity [6]: 2 orders of magnitude

Molecule: O=C1CCc2c(ccc3ccccc23)O1 [Splito]
effect on anticancer effects of low dose ATRA [5]: greatly potentiated
effect on ATRA sensitivity [6]: increase ATRA sensitivity

Molecule: CC1=C(/C=C/C(C)=C/C=C/C(C)=C/C(=O)O)C(C)(C)CCC1 [ATRA, all-trans-retinoic acid]
interaction with Pin1 in FP assay [7]: interacted with Pin1 in a dose-dependent manner
Pin1 binding among retinoids tested [7]: most potent
Pin1 binding potency, ATRA versus 13cRA ([7]; after 0.5 h Pin1 incubation): more potent than 13cRA
Pin1 binding potency, ATRA versus 13cRA ([7]; after 24 h Pin1 incubation): the same potency
tumor size [8]: slightly smaller tumors than control mice
Pin1 mutants and cyclin D1 in tumors [9]: dose-dependently reduced both Q33K and E100D Pin1 mutants and cyclin D1 in tumors
inhibition of Q33K or E100D Pin1 mutant-promoted xenograft tumor growth [9]: dose-dependently and effectively inhibited
inhibition of Pin1 activation of the cyclin D1 promoter [10]: fully inhibited
protein levels of Pin1 and oncogenic substrates (cyclin D1, HER2, ERα, Akt, NFkB/p65, c-Jun, PKM2) ([11]; T47D, SKBR3 or MDA-MB-231): dose-dependent protein reduction
protein levels of tumor suppressor substrates Smad2/3 or SMRT ([11]; T47D, SKBR3 or MDA-MB-231): protein induction
changes in Pin1, oncogenes or tumor suppressors ([11]; normal MCF10A cells): no appreciable changes

Molecule: CCCCCCCCCCCCCCCc1cccc(O)c1C(=O)O [Anacardic acid]
effect on p300-increased Pin1 acetylation ([1]; p300 over-expressed): reversed

Molecule: C=C(c1ccc(C(=O)O)cc1)c1cc2c(cc1C)C(C)(C)CCC2(C)C [Bexarotene]
Pin1 binding among retinoids tested [7]: only marginal Pin1 interaction

Molecule: CC1=C(/C=C/C(C)=C/C=C/C(C)=C\C(=O)O)C(C)(C)CCC1 [13cRA, 13-cis-retinoic acid]
interaction with Pin1 in FP assay [7]: interacted with Pin1 in a dose-dependent manner
rank as Pin1 inhibitor hit by Z score in FP-HTS ([7]; 8200 compound chemical libraries): No. 1 hit
inhibition of Pin1 PPIase activity [15]: completely inhibited

Continued, in another order:

Pin1 binding among retinoids tested [7]: completely inactive
Molecule: CC1=C(/C=C/C(C)=C/C=C/C(C)=C/C=O)C(C)(C)CCC1 [retinal]

Pin1 binding among retinoids tested [7]: completely inactive
Molecule: CC(=O)OC/C=C(C)/C=C/C=C(C)/C=C/C1=C(C)CCCC1(C)C [retinyl acetate]

Pin1 binding among retinoids tested [7]: completely inactive
Molecule: CC1=C(/C=C/C(C)=C/C=C/C(C)=C/CO)C(C)(C)CCC1 [retinol]

Pin1 binding among retinoids tested [7]: only marginal Pin1 interaction
Molecule: CC1=C(/C=C/C(C)=C/C=C/C(C)=C/C(=O)Nc2ccc(O)cc2)C(C)(C)CCC1 [Fenretinide]

interaction with Pin1 in FP assay [7]: negative control
Molecule: O=C(O)c1ccccc1O [salicylic acid]

binding to Pin1 S71E mutant [12]: unable to bind
Molecule: Bth-d-phos.Thr-Pip-Nal [pTide]
ability to enter cells [13]: cannot enter cells
Kd [14]: 1.2 nM
